# Biological target: T1, Human complement C1s enzyme (Homo sapiens, UniProt P09871)
# T1 construct: purified from human serum, Complement Technology, Inc; purchased Complement Technology, Inc; host or cells: human serum
# T1 sequence (P09871 438-688 limits assumed): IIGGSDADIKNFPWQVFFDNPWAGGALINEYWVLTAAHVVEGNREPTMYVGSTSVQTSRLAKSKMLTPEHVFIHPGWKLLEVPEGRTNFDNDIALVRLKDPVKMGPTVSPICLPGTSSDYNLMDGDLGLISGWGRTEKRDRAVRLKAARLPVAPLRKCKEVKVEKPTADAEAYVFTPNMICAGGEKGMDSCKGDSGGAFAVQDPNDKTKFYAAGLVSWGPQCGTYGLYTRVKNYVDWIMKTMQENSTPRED
# T1 sequence (P09871 16-437 partner limits assumed): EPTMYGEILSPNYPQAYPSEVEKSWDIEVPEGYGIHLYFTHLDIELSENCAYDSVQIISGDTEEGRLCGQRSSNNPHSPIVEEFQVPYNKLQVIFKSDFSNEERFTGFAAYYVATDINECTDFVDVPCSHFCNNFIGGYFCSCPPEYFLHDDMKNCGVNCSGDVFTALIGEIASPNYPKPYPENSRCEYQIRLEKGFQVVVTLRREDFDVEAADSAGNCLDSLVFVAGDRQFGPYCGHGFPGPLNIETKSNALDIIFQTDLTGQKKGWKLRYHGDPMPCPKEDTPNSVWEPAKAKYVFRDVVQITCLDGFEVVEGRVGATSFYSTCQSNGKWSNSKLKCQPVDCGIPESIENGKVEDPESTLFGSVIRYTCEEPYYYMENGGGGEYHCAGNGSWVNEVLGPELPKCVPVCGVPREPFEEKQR
# Assay: Human C1s Enzyme Assay
# Type: biochemical
# Settings: human C1s 1.16 nM, 5 min preincubation, substrate Z-L-Lys-SBzl 100 μM, A405; read-out: C1s Protease Activity
# How it was run: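 C1s purified from human serum (1.16 nM final) was preincubated with compound for 5 min at room temperature in 50 mM Tris, 1 M NaCl, pH 7.5. Z-L-Lys-SBzl and DTNB were then added at 100 μM each, and A405 was followed for 30 min. IC50 came from nonlinear regression of reaction rates.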
row,SMILES,IC50 [nM]
1,"C[C@@]12C[C@@H]1N(C(=O)CNC(=O)c1ccc(Oc3ccccc3)cc1)[C@H](C(=O)NCc1cc3c(s1)CCN=C3N)C2 [Compound 182, (1S,3S,5S)-N-((4-amino-6,7-dihydrothieno[3,2-c]pyridin-2-yl)methyl)-5-methyl-2-((4-phenoxybenzoyl)glycyl)-2-azabicyclo[3.1.0]hexane-3-carboxamide]",> 1000
2,"CC1(C)SCN(C(=O)CNC(=O)CCCOc2ccccc2)[C@@H]1C(=O)NCc1cc(C(=N)N)cs1 [Compound 124, (R)-N-((4-carbamimidoylthiophen-2-yl)methyl)-5,5-dimethyl-3-((4-phenoxybutanoyl)glycyl)thiazolidine-4-carboxamide]",100 to 1000
3,"CC(CCOc1ccccc1)C(=O)NCC(=O)N1CC2(C[C@H]1C(=O)NCc1cc(C(=N)N)cs1)OCCO2 (stereo partly drawn) [Compound 88, (8S)-N-((4-carbamimidoylthiophen-2-yl)methyl)-7-((2-methyl-4-phenoxybutanoyl)glycyl)-1,4-dioxa-7-azaspiro[4.4]nonane-8-carboxamide]",< 100
4,"C[C@@]12C[C@@H]1N(C(=O)CNC(=O)CCCOc1ccccc1)[C@H](C(=O)NCc1cc(C(=N)N)c(F)s1)C2 [Compound 245, (1S,3S,5S)-N-((4-carbamimidoyl-5-fluorothiophen-2-yl)methyl)-5-methyl-2-((4-phenoxybutanoyl)glycyl)-2-azabicyclo[3.1.0]hexane-3-carboxamide]",< 100
5,"C[C@@]12C[C@@H]1N(C(=O)CNC(=O)c1ccc(Oc3ccc(P(C)(=O)O)cc3)cc1)[C@H](C(=O)NCc1cc(C(=N)N)cs1)C2 [Compound 53, (4-(4-((2-((1S,3S,5S)-3-(((4-carbamimidoylthiophen-2-yl)methyl)carbamoyl)-5-methyl-2-azabicyclo[3.1.0]hexan-2-yl)-2-oxoethyl)carbamoyl)phenoxy)phenyl)-(methyl)phosphinic acid]",100 to 1000
6,"N=C(N)c1csc(CNC(=O)[C@@H]2C[C@]3(CN2C(=O)CNC(=O)c2ccc(Oc4ccccc4)cc2)CC3(F)F)c1 [Compound 22, (3R,6S)-N-((4-carbamimidoylthiophen-2-yl)methyl)-1,1-difluoro-5-((4-phenoxy-benzoyl)glycyl)-5-azaspiro[2.4]heptane-6-carboxamide]",< 100
7,"C[C@@H](NC(=O)[C@@H]1C[C@](F)(CF)CN1C(=O)CNC(=O)CCCOc1ccc(F)cc1)c1cc(C(=N)N)cs1 [Compound 99, (2S,4R)-N-[(1R)-1-(4-carbamimidoylthiophen-2-yl)ethyl]-4-fluoro-4-(fluoromethyl)-1-{2-[4-(4-fluorophenoxy)butanamido]acetyl}pyrrolidine-2-carboxamide]",< 100
8,"C[C@@H](NC(=O)[C@@H]1C[C@](F)(COCCCCCC(=O)O)CN1C(=O)CNC(=O)CCCOc1ccccc1)c1cc(C(=N)N)cs1 [Compound 234, 6-(((3R,5S)-5-(((R)-1-(4-carbamimidoylthiophen-2-yl)ethyl)carbamoyl)-3-fluoro-1-((4-phenoxybutanoyl)glycyl)pyrrolidin-3-yl)methoxy)hexanoic acid]",< 100
9,"CC(C)(C)c1ccc(OCCCC(=O)NCC(=O)N2[C@H]3C[C@@]3(C)C[C@H]2C(=O)NCc2cc(C(=N)N)cs2)cc1 [Compound 87, (1S,3S,5S)-2-((4-(4-(tert-butyl)phenoxy)butanoyl)glycyl)-N-((4-carbamimidoyl-thiophen-2-yl)methyl)-5-methyl-2-azabicyclo[3.1.0]hexane-3-carboxamide]",< 100
10,"CCCC(COc1ccccc1)CC(=O)NCC(=O)N1CC2(C[C@H]1C(=O)NCc1cc(C(=N)N)cs1)OCCO2 (stereo partly drawn) [Compound 90, (8S)-N-((4-carbamimidoylthiophen-2-yl)methyl)-7-((3-(phenoxymethyl)hexanoyl)glycyl)-1,4-dioxa-7-azaspiro[4.4]nonane-8-carboxamide]",< 100
11,"N=C(N)c1csc(CNC(=O)[C@@H]2C[C@@H](c3ccccc3)CN2C(=O)CNC(=O)CCCOc2ccccc2)c1 [Compound 156, (2S,4S)-N-((4-carbamimidoylthiophen-2-yl)methyl)-1-((4-phenoxybutanoyl)glycyl)-4-phenylpyrrolidine-2-carboxamide]",< 100
12,"N=C(N)c1csc([C@H](NC(=O)[C@@H]2CC3(CN2C(=O)CNC(=O)CCCOc2ccccc2)OCCO3)C2CC2)c1 [Compound 177, (S)-N-((R)-(4-carbamimidoylthiophen-2-yl)(cyclopropyl)methyl)-7-((4-phenoxybutanoyl)glycyl)-1,4-dioxa-7-azaspiro[4.4]nonane-8-carboxamide]",> 1000
13,"C[C@@]12C[C@@H]1N(C(=O)CNC(=O)c1ccc(Oc3ccccc3)cc1)[C@H](C(=O)NCc1ncc(C(=N)N)s1)C2 [Compound 235, (1S,3S,5S)-N-((5-carbamimidoylthiazol-2-yl)methyl)-5-methyl-2-((4-phenoxybenzoyl)glycyl)-2-azabicyclo[3.1.0]hexane-3-carboxamide]",< 100
14,"N=C(N)c1csc(CNC(=O)[C@@H]2C[C@@H](C(F)(F)F)CN2C(=O)CNC(=O)CCCOc2ccccc2)c1 [Compound 60, (2S,4R)-N-((4-carbamimidoylthiophen-2-yl)methyl)-1-((4-phenoxybutanoyl)glycyl)-4-(trifluoromethyl)pyrrolidine-2-carboxamide]",< 100
15,"N=C(N)c1csc(CNC(=O)C23CCC(CC2)N3C(=O)CNC(=O)c2ccc(Oc3ccccc3)cc2)c1 [Compound 16, N-((4-carbamimidoylthiophen-2-yl)methyl)-7-((4-phenoxybenzoyl)glycyl)-7-azabicyclo[2.2.1]heptane-1-carboxamide]",100 to 1000
16,"C[C@@]12C[C@@H]1N(C(=O)CNC(=O)c1ccc(Oc3ccccc3)cc1)[C@H](C(=O)NCc1cc(/C(N)=N/S(C)(=O)=O)cs1)C2 [Compound 13, (1S,3S,5S)-5-methyl-N-((4-((Z)-N′-(methylsulfonyl)carbamimidoyl)thiophen-2-yl)-methyl)-2-((4-phenoxybenzoyl)glycyl)-2-azabicyclo[3.1.0]hexane-3-carboxamide]",> 1000
17,"N=C(N)c1csc(CNC(=O)[C@@H]2C[C@@]3(CCO3)CN2C(=O)CNC(=O)c2ccc(Oc3ccccc3)cc2)c1 [Compound 194, (4R,7S)-N-((4-carbamimidoylthiophen-2-yl)methyl)-6-((4-phenoxybenzoyl)glycyl)-1-oxa-6-azaspiro[3.4]octane-7-carboxamide]",< 100
18,"N=C(N)c1csc([C@H](NC(=O)[C@@H]2C[C@@H](OC(F)F)CN2C(=O)CNC(=O)c2ccc(Oc3ccccc3)cc2)c2ccccc2)c1 [Compound 200, (2S,4R)-N-((R)-(4-carbamimidoylthiophen-2-yl)(phenyl)methyl)-4-(difluoromethoxy)-1-((4-phenoxybenzoyl)glycyl)pyrrolidine-2-carboxamide]",> 1000
19,"COC(=O)C(NC(=O)[C@@H]1C[C@@H](OC(F)F)CN1C(=O)CNC(=O)c1ccc(Oc2ccccc2)cc1)c1cc(C(=N)N)cs1 (stereo partly drawn) [Compound 189, methyl 2-(4-carbamimidoylthiophen-2-yl)-2-((2S,4R)-4-(difluoromethoxy)-1-((4-phenoxybenzoyl)glycyl)pyrrolidine-2-carboxamido)acetate]",> 1000
20,"C[C@@]12C[C@@H]1N(C(=O)CNC(=O)c1ccc(Oc3ccc(C(F)(F)F)cn3)cc1)[C@H](C(=O)NCc1cc(C(=N)N)cs1)C2 [Compound 154, (1S,3S,5S)-N-((4-carbamimidoylthiophen-2-yl)methyl)-5-methyl-2-((4-((5-(trifluoromethyl)pyridin-2-yl)oxy)benzoyl)glycyl)-2-azabicyclo[3.1.0]hexane-3-carboxamide]",< 100
21,"N=C(N)c1csc(CNC(=O)[C@@H]2CC3(CCCC3)CN2C(=O)CNC(=O)CCCOc2ccccc2)c1 [Compound 82, (S)-N-((4-carbamimidoylthiophen-2-yl)methyl)-2-((4-phenoxybutanoyl)glycyl)-2-azaspiro[4.4]nonane-3-carboxamide]",100 to 1000
22,"C[C@@H](NC(=O)[C@@H]1C[C@@]23COCCC/C=C/CCCCCCCCC(=O)N[C@@H](CCOc4ccccc4)C(=O)NCC(=O)N1[C@H]2C3)c1cc(C(=N)N)cs1 [Compound 250, (1R,19S,25S,28S,E)-N-((R)-1-(4-carbamimidoylthiophen-2-yl)ethyl)-17,20,23-trioxo-19-(2-phenoxyethyl)-3-oxa-18,21,24-triazatricyclo[22.2.2.0^1,25]octacos-7-ene-28-carboxamide]",< 100
23,"C[C@@H](C(=O)NCc1cc(C(=N)N)cs1)N(C)C(=O)CNC(=O)c1ccc(Oc2ccccc2)cc1 [Compound 126, (S)-N-(2-((1-(((4-carbamimidoylthiophen-2-yl)methyl)amino)-1-oxopropan-2-yl)(methyl)amino)-2-oxoethyl)-4-phenoxybenzamide]",< 100
